From paper PMC7766155, “Improved Stability and Activity of a Marine Peptide-N6NH2 against Edwardsiella tarda and Its Preliminary Application in Fish” (Marine Drugs, 2020)
Values after ≈ are worked out from the molar mass of the structure shown. Values joined by “and” are separate entries in the source; they are usually repeats but may differ in a detail not shown here. Identical values can stand only once. Like-named read-outs stand apart in the source and are kept apart here. Where a SMILES comes first, the peptide text is derived from it. Bridges are numbered along the chain shown (N, C = ends).

Legend:
[1] = test system: inner membrane of E. tarda; experiment: Inner membrane penetration, PI staining, flow cytometry; assay type: cell-based, Edwardsiella tarda
Procedure: After washing twice with PBS, the cells were incubated with PI (50 μg/mL) for 15 min and analyzed using a FACS Calibur Flow Cytometer (BD, San Jose, CA, USA).

[2] = test system: Staphylococcus aureus ATCC43300
E. tarda [3] = experiment: Time-kill curves; assay type: cell-based, Edwardsiella tarda; details: 10^5 CFU/mL, 28 °C, 200 rpm, plate count every 2 h
Procedure: Time–kill curves for N6 and N6NH2 were determined against E. tarda. In brief, the mid-log phase bacterial cells (10^5 CFU/mL) were mixed with different concentrations of peptides (1 × and 2 × and 4 × MIC) and cultured at 28 °C (200 rpm). Samples of 100 μL were taken from the mixture at intervals of 2 h, continuously diluted, and counted on the plate.

E. tarda [4] = experiment: pH stability (residual antibacterial activity, inhibition zone); assay type: physicochemical, Edwardsiella tarda; details: pH values of 2–10, 3 h incubation; N6 128 μg/mL, norfloxacin 10 μg/mL; inhibition zone method vs E. tarda
Procedure: To evaluate the thermal stability of peptides, N6 and N6NH2 were incubated for 1 h at 4, 20, 40, 60, 80 and 100 °C. To measure the pH stability, peptides were incubated for 3 h in 100 mM glycine-HCl buffer (pH 2.0), sodium acetate buffer (pH 4.0), sodium phosphate buffer (pH 6.0), Tris-HCl buffer (pH 8.0) or glycine-NaOH buffer (pH 10.0). In addition, peptides were incubated for 4 h at 37 °C in pepsin (3,000 U/mg, pH 2.0) and trypsin (250 U/mg, pH 8.0) (10:1, w/w) solutions, respectively. […] After treatment, 30 μL of solutions were taken out to determine the antibacterial activity of peptides against E. tarda by the inhibition zone method. The untreated peptides were used as the control. All tests were conducted in triplicate.

[5] = test system: Salmonella typhimurium CVCC533
E. tarda [6] = assay type: cell-based, Edwardsiella tarda
Procedure: (§1) All tests were conducted in triplicate.

E. coli CVCCO157 = details: broth microdilution, MHB, 1 × 10^5 CFU/mL, 37 °C 18–24 h, n = 3; some N6 data from ref 19
Staphylococcus hyicus = experiment: microbe, parasite or virus in culture; assay type: cell-based
Procedure: as §1

E. tarda cells = experiment: TEM ultrastructure; assay type: cell-based, Edwardsiella tarda; details: 4 × MIC for 2 h, 1 × 10^8 CFU/mL
Procedure: Mid-log phase E. tarda cells (1 × 10^8 CFU/mL) were incubated with 4 × MIC N6 or N6NH2 for 2 h at 37 °C. The bacterial cells were then centrifuged, washed three times with 0.1 M PBS (pH 7.2) and fixed overnight at 4 °C with 2.5% glutaraldehyde. After washing twice with PBS, the cells were post-fixed with 1% osmium tetroxide (OsO4) for 2 h, dehydrated in a graded ethanol series (from 50% to 100%) for 15 min each time and dried by CO2. The cell samples were sputtered with gold-palladium and observed on a QUANTA200 electron microscopy (FEI, Philips, The Netherlands).
The bacterial cells were treated with peptides as described above, fixed with 2.5% glutaraldehyde at 4 °C overnight and post-fixed with 1% OsO4 for 1 h. After washing three times with PBS, the cells were dehydrated with a graded acetone series (50%, 70%, 85%, 95% and 100%, for 7 min each time) and immersed in mixtures of acetone and resin (3:1, 1:1 and 1:3, 40 min each time). The samples were infiltrated with a pure epoxy resin overnight, embedded in capsules containing embedding medium and polymerized at 45 °C for 3 h and at 65 °C for 24 h, respectively. Thin sections were cut using an ultramicrotome, stained with 1% uranyl acetate and examined by a JEM1400 (JEDL, Tokyo, Japan).

[7] = LPS binding, BODIPY-TR-cadaverine displacement; design: species or system E. coli; details: 0.5 µM LPS, 5 μM BC, Tris buffer pH 7.4; 0.049 μM to 50 μM; excitation/emission 580/620 nm
[8] = test system: Escherichia coli, S. typhimurium, S. enteritidis and S. pullorum; experiment: organism not typed; assay type: cell-based
Procedure: as §1

[9] = broth microdilution, MHB, 1 × 10^5 CFU/mL, 37 °C 18–24 h, n = 3, some N6 data from ref 19

SMILES: CC(C)[C@@H]1NC(=O)CNC(=O)[C@H](CC(N)=O)NC(=O)[C@H](CCCNC(=N)N)NC(=O)[C@H](Cc2ccc(O)cc2)NC(=O)[C@H](C(C)C)NC(=O)[C@@H](NC(=O)[C@@H](NC(=O)[C@H](CC(N)=O)NC(=O)[C@H](Cc2c[nH]c3ccccc23)NC(=O)[C@H](C)NC(=O)[C@H](Cc2ccccc2)NC(=O)CN)C(C)C)CSSC[C@@H](C(=O)N[C@@H](Cc2c[nH]cn2)C(=O)N[C@@H](CCCNC(=N)N)C(=O)N[C@@H](CCCNC(=N)N)C(=O)N[C@@H](C)C(=O)N[C@@H](CC(N)=O)C(=O)O)NC(=O)[C@H](C(C)C)NC(=O)[C@H](CCCNC(=N)N)NC1=O [Peptide N6] (H-GFAWNVCVYRNGVRVCHRRAN-OH; disulfide 7-16; N-terminus assumed)
- percentage of E. tarda stained with PI ([1]; 4 × MIC, 120 min, 1 × 10^8 CFU/mL, PI 50 μg/mL, flow cytometry): 77.7%
- percentage of E. tarda stained with PI ([1]; within 30 min, 1×, 2× and 4× MIC): less than 5%
- MIC ([2]; ATCC43300): 6.46 µM
- MIC [2, 9]: 16 µg/mL
- MIC (S. pullorum CVCC1802; CVCC1802): 0.2 µM
- MIC (S. pullorum CVCC1802; [9]): 0.5 µg/mL
- time at which bacteria were killed (time-kill curve) (E. tarda [3]; 2 × MIC): ≤ 2 h
- time at which bacteria were killed (time-kill curve) (E. tarda [3]; 4 × MIC): ≤ 2 h
- MIC (S. aureus ATCC25923; ATCC25923): 0.1 µM
- MIC (S. aureus ATCC25923; [9]): 0.25 µg/mL
- MIC (Escherichia coli CVCC195; CVCC195): 0.2 µM
- MIC (Escherichia coli CVCC195; [9]): 0.5 µg/mL
- MIC (Aeromonas veronii): 2.58 µM
- MIC (Aeromonas veronii; [9]): 6.4 µg/mL
- antibacterial activity at different pH values (E. tarda [4]): strong antibacterial activity
- MIC [5, 9]: 1 µg/mL
- MIC ([5]; murium CVCC533): 0.4 µM
- MBC (E. tarda [6]): 12.8 µg/mL (≈ 5.17 µM)
- MIC (E. coli CVCC25922; CVCC25922): 0.1 µM
- MIC (E. coli CVCC25922; [9]): 0.25 µg/mL
- MIC (S. hyicus 15095): 6.46 µM
- MIC (S. hyicus 15095; [9]): 16 µg/mL
- MIC (E. coli CVCCO157): 0.5 μg/mL and 0.2 μM
- MIC (Staphylococcus hyicus): 16 to 64 µg/mL
- abnormal cells (TEM) (E. tarda cells): over 95%
- MIC (S. hyicus 437-2): 25.8 µM
- MIC (S. hyicus 437-2; [9]): 64 µg/mL
- binding to LPS (displacement of BC probe) [7]: potent LPS-binding affinity
- MIC [8]: 0.25 to 4 µg/mL
- MIC (S. aureus ATCC546; ATCC546): 1.62 µM
- MIC (S. aureus ATCC546; [9]): 4 µg/mL
- MIC (S. enteritidis CVCC3377; CVCC3377): 0.1 µM
- MIC (S. enteritidis CVCC3377; [9]): 0.25 µg/mL
- MIC (S. pullorum CVCC1789; CVCC1789): 0.2 µM
- MIC (S. pullorum CVCC1789; [9]): 0.5 µg/mL
